Reference: ChEMBL document CHEMBL1153550, “In vitro study of Candida tropicalis isolates exhibiting paradoxical growth in the presence of high concentrations of caspofungin” (2007)
Values after ≈ are worked out from the molar mass of the structure shown. Active and inactive are the calls of the source. The rule behind the calls is not given here.

Experiments:
Candida tropicalis [1] = assay: Antifungal activity against 10^5 CFU/ml Candida tropicalis isolate 12 in RPMI 1640 medium at 12.5 ug/ml treated for 24 hrs followed by incubation in drug free medium for 48 hrs by broth microdilution method; format: functional, organism-based
Candida tropicalis [2] = assay: Antifungal activity against 2 x 10^7 CFU/ml Candida tropicalis isolate 4 in antibiotic medium 3 after 24 hrs by broth microdilution method; format: functional; details: isolate 4, 24 h
Candida tropicalis [3] = assay: Antifungal activity against Candida tropicalis isolate 15 in RPMI 1640 medium assessed as paradoxical growth at 12.5 ug/ml after 24 hrs by broth microdilution method; format: functional, organism-based
Candida tropicalis [4] = assay: Antifungal activity against 2 x 10^7 CFU/ml Candida tropicalis isolate 5 in RPMI 1640 medium after 24 hrs by broth microdilution method; format: functional; details: isolate 5, 24 h
Candida tropicalis [5] = assay: Antifungal activity against Candida tropicalis isolate 7 in RPMI 1640 medium assessed as paradoxical growth at 12.5 ug/ml after 24 hrs by broth microdilution method; format: functional, organism-based
Candida tropicalis [6] = assay: Antifungal activity against 10^5 CFU/ml Candida tropicalis isolate 5 in RPMI 1640 medium at =< 0.09 ug/ml after 24 hrs followed by incubation in drug free medium for 48 hrs by broth microdilution method; format: functional, organism-based
Candida tropicalis [7] = assay: Antifungal activity against Candida tropicalis clinical isolate in antibiotic medium 3 assessed as paradoxical growth-related change in CFU treated for 24 hrs by time-kill assay; format: functional
Candida tropicalis [8] = assay: Antifungal activity against > 2 x 10^7 CFU/ml Candida tropicalis isolate 10 in antibiotic medium 3 assessed as partial growth after 24 hrs by broth microdilution method; format: functional, organism-based
Candida tropicalis [9] = assay: Antifungal activity against 10^5 CFU/ml Candida tropicalis isolate 7 in RPMI 1640 medium at =< 0.09 ug/ml after 24 hrs followed by incubation in drug free medium for 48 hrs by broth microdilution method; format: functional, organism-based
Candida tropicalis [10] = assay: Antifungal activity against 10^5 CFU/ml Candida tropicalis isolate 6 in RPMI 1640 medium at =< 0.09 ug/ml after 24 hrs by followed by incubation in drug free medium for 48 hrs broth microdilution method; format: functional, organism-based
Candida tropicalis [11] = assay: Antifungal activity against Candida tropicalis isolate 6 in RPMI 1640 medium assessed as paradoxical growth at 12.5 ug/ml after 48 hrs by broth microdilution method; format: functional, organism-based
Candida tropicalis [12] = assay: Antifungal activity against 10^5 CFU/ml Candida tropicalis ATCC 750 in RPMI 1640 medium at 0.4 to 12.5 ug/ml treated for 24 hrs followed by incubation in drug free medium for 48 hrs by broth microdilution method; format: functional, organism-based
Candida tropicalis [13] = assay: Antifungal activity against 10^5 CFU/ml Candida tropicalis isolate 5 in RPMI 1640 medium at 12.5 ug/ml treated for 48 hrs followed by incubation in drug free medium for 48 hrs by broth microdilution method; format: functional, organism-based
Candida tropicalis [14] = assay: Antifungal activity against > 2 x 10^7 CFU/ml Candida tropicalis isolate 1 in antibiotic medium 3 assessed as partial growth after 24 hrs by broth microdilution method; format: functional, organism-based
Candida tropicalis [15] = assay: Antifungal activity against 10^5 CFU/ml Candida tropicalis isolate 13 in RPMI 1640 medium at 12.5 ug/ml treated for 24 hrs followed by incubation in drug free medium for 48 hrs by broth microdilution method; format: functional, organism-based
Candida tropicalis [16] = assay: Antifungal activity against > 2 x 10^7 CFU/ml Candida tropicalis isolate 2 in antibiotic medium 3 assessed as partial growth after 24 hrs by broth microdilution method; format: functional, organism-based
Candida tropicalis [17] = assay: Antifungal activity against 2 x 10^7 CFU/ml Candida tropicalis isolate 5 in antibiotic medium 3 after 24 hrs by broth microdilution method; format: functional; details: isolate 5, 24 h
Candida tropicalis [18] = assay: Antifungal activity against > 2 x 10^7 CFU/ml Candida tropicalis isolate 1 in RPMI 1640 medium assessed as partial growth after 24 hrs by broth microdilution method; format: functional, organism-based
Candida tropicalis [19] = assay: Antifungal activity against 10^5 CFU/ml Candida tropicalis isolate 14 in RPMI 1640 medium at =< 0.09 ug/ml after 24 hrs followed by incubation in drug free medium for 48 hrs by broth microdilution method; format: functional, organism-based
Candida tropicalis [20] = assay: Antifungal activity against 2 x 10^7 CFU/ml Candida tropicalis isolate 6 in RPMI 1640 medium after 24 hrs by broth microdilution method; format: functional; details: isolate 6, 24 h
Candida tropicalis [21] = assay: Antifungal activity against 10^5 CFU/ml Candida tropicalis isolate 8 in RPMI 1640 medium at 12.5 ug/ml treated for 48 hrs followed by incubation in drug free medium for 48 hrs by broth microdilution method; format: functional, organism-based
Candida tropicalis [22] = assay: Antifungal activity against Candida tropicalis isolate 5 in RPMI 1640 medium assessed as paradoxical growth at 6.25 ug/ml after 24 hrs by broth microdilution method; format: functional, organism-based
Candida tropicalis [23] = assay: Antifungal activity against 10^5 CFU/ml Candida tropicalis isolate 11 in RPMI 1640 medium at 12.5 ug/ml treated for 24 hrs followed by incubation in drug free medium for 48 hrs by broth microdilution method; format: functional, organism-based
Candida tropicalis [24] = assay: Antifungal activity Candida tropicalis isolate 4 in RPMI 1640 medium at 0.19 to 6.25 ug/ml after 24 hrs by time-kill assay; format: functional, organism-based
Candida tropicalis [25] = assay: Antifungal activity against > 2 x 10^7 CFU/ml Candida tropicalis isolate 6 in antibiotic medium 3 assessed as partial growth after 24 hrs by broth microdilution method; format: functional, organism-based
Candida tropicalis [26] = assay: Antifungal activity against 10^5 CFU/ml Candida tropicalis isolate 2 in RPMI 1640 medium at =< 0.09 ug/ml after 24 hrs followed by incubation in drug free medium for 48 hrs by broth microdilution method; format: functional, organism-based
Candida tropicalis [27] = assay: Antifungal activity against 2 x 10^7 CFU/ml Candida tropicalis isolate 14 in antibiotic medium 3 after 24 hrs by broth microdilution method; format: functional; details: isolate 14, 24 h
Candida tropicalis [28] = assay: Antifungal activity against 2 x 10^7 CFU/ml Candida tropicalis isolate 12 in antibiotic medium 3 after 24 hrs by broth microdilution method; format: functional; details: isolate 12, 24 h
Candida tropicalis [29] = assay: Antifungal activity against Candida tropicalis isolate 7 in RPMI 1640 medium assessed as paradoxical growth at 6.25 ug/ml after 48 hrs by broth microdilution method; format: functional, organism-based
Candida tropicalis [30] = assay: Antifungal activity against 10^5 CFU/ml Candida tropicalis isolate 4 in RPMI 1640 medium at 12.5 ug/ml treated for 24 hrs followed by incubation in drug free medium for 48 hrs by broth microdilution method; format: functional, organism-based
Candida tropicalis [31] = assay: Antifungal activity against 10^5 CFU/ml Candida tropicalis isolate 4 in RPMI 1640 medium at 12.5 ug/ml treated for 48 hrs followed by incubation in drug free medium for 48 hrs by broth microdilution method; format: functional, organism-based
Candida tropicalis [32] = assay: Antifungal activity against 2 x 10^7 CFU/ml Candida tropicalis isolate 7 in antibiotic medium 3 after 24 hrs by broth microdilution method; format: functional; details: isolate 7, 24 h
Candida tropicalis [33] = assay: Antifungal activity against 10^5 CFU/ml Candida tropicalis isolate 11 in RPMI 1640 medium at 12.5 ug/ml treated for 48 hrs followed by incubation in drug free medium for 48 hrs by broth microdilution method; format: functional, organism-based
Candida tropicalis [34] = assay: Antifungal activity against > 2 x 10^7 CFU/ml Candida tropicalis isolate 4 in RPMI 1640 medium assessed as partial growth after 24 hrs by broth microdilution method; format: functional, organism-based
Candida tropicalis [35] = assay: Antifungal activity against > 2 x 10^7 CFU/ml Candida tropicalis isolate 6 in antibiotic medium 3 assessed as paradoxical growth after 24 hrs by broth microdilution method; format: functional, organism-based

- MIC (Candida tropicalis [2]): 0.024 µg/mL (≈ 0.022 µM)
- MIC (Candida tropicalis [4]): 0.024 µg/mL (≈ 0.022 µM)
- MIC (Candida tropicalis [17]): 0.024 µg/mL (≈ 0.022 µM)
- MIC (Candida tropicalis [20]): 0.024 µg/mL (≈ 0.022 µM)
- MIC (Candida tropicalis [27]): 0.024 µg/mL (≈ 0.022 µM)
- MIC (Candida tropicalis [28]): 0.024 µg/mL (≈ 0.022 µM)
- MIC (Candida tropicalis [32]): 0.024 µg/mL (≈ 0.022 µM)
Structure (SMILES): CC[C@H](C)C[C@H](C)CCCCCCCCC(=O)N[C@H]1C[C@@H](O)[C@@H](NCCN)NC(=O)[C@@H]2[C@@H](O)CCN2C(=O)[C@H]([C@H](O)CCN)NC(=O)[C@H]([C@H](O)[C@@H](O)c2ccc(O)cc2)NC(=O)[C@@H]2C[C@@H](O)CN2C(=O)[C@H]([C@@H](C)O)NC1=O [CASPOFUNGIN]
- Activity (Candida tropicalis [1]): inactive
- Activity (Candida tropicalis [3]): inactive
- Activity (Candida tropicalis [5]): Active
- Activity (Candida tropicalis [6]): Active
- Activity (Candida tropicalis [7]): 0.36 log10CFU/ml
- Activity (Candida tropicalis [8]): inactive
- Activity (Candida tropicalis [9]): Active
- Activity (Candida tropicalis [10]): Active
- Activity (Candida tropicalis [11]): inactive
- Activity (Candida tropicalis [12]): inactive
- Activity (Candida tropicalis [13]): inactive
- Activity (Candida tropicalis [14]): inactive
- Activity (Candida tropicalis [15]): inactive
- Activity (Candida tropicalis [16]): inactive
- Activity (Candida tropicalis [18]): inactive
- Activity (Candida tropicalis [19]): Active
- Activity (Candida tropicalis [21]): inactive
- Activity (Candida tropicalis [22]): inactive
- Activity (Candida tropicalis [23]): inactive
- Activity (Candida tropicalis [24]): Active
- Activity (Candida tropicalis [25]): inactive
- Activity (Candida tropicalis [26]): Active
- Activity (Candida tropicalis [29]): Active
- Activity (Candida tropicalis [30]): inactive
- Activity (Candida tropicalis [31]): inactive
- Activity (Candida tropicalis [33]): inactive
- Activity (Candida tropicalis [34]): inactive
- Activity (Candida tropicalis [35]): inactive
